33 compounds from patent US20250223281A1, “ANTIDIABETIC COMPOUNDS AND COMPOSITIONS” (REZUBIO PHARMACEUTICALS CO., LTD, priority 2022, published 2025) can be followed below.

In general, EC50 refers to the concentration needed to bring the measured effect to its halfway point. The low end stands for a more potent agent, the high end for a less potent agent.

This experiment concerns the target T1, GPR40 (Homo sapiens, UniProt O14842).
T1 construct: expressed in transfected cells; host or cells: HEK293 cells stably expressing GPR40 (Hygromycin selection)
Description: IP1 accumulation assay in HEK293 cells stably expressing GPR40. The experiment is classed as cell-based. The protocol:
IP1 accumulation assay was used to evaluate the potency of compounds. HEK293 cells stably expressing GPR40 were cultured in 5% CO2 incubator (ThermoFisher) in maintenance media (Dulbecco's modified Eagle's medium with 4.5 g/L of glucose, 10% fetal bovine serum, 100 μg/mL Hygromycin, and Penicillin (100 U/mL)/Streptomycin (100 μg/mL)) till 100% confluency. Cells were harvested freshly, spun down at 300×g for 5 min, and resuspended in pre-warmed 1× stimulant buffer from Cisbio IP-One HTRF Detection kit (Cisbio). Cell density was adjusted to 2.0×10^6 cells/mL. DMSO was used as blank control and AMG-1638 (CAS #: 1142214-62-7) as positive control. Compounds were prepared at 10 mM in DMSO and 5 nL of 3× serially diluted compounds (10 concentrations) were added to each well of the 384-LDV assay plate (Corning) by using ECHO 550 (Labcyte). Five μL of cells in suspension were transferred into each well by using Multidrop Combi Reagent Dispenser (ThermoFisher). Assay plate was then sealed and incubated at 37° C. for 2 hours. IP-d2 reagent and anti-IP1 reagent were prepared following the manual (Cisbio). Five μL of IP1-d2 and then 5 μL of anti-IP1 antibody was added to each well sequentially. Assay plate was incubated at room temperature for 60 min and then read at 665 nm/615 nm on an Envision plate reader (PerkinElmer). The ratio of values obtained at 665 nm and 615 nm was used for calculation of IP1 accumulation: % Effect=(Ratiosample−Ratioblank)/(RatioAMG-1638−Ratioblank)×100. Dose curve was fitted and EC50 of each compound was calculated by using XLFit.

Where [1] appears, read: IP1 accumulation, HEK293 cells stably expressing GPR40, 2 hours at 37° C., % effect relative to AMG-1638, table of Biological Example 1.
Where [2] appears, read: Tables A-1a to A-7b (structure-property relationship), obtained by methods of Biological Example 1.

T1 sequence (O14842 whole entry): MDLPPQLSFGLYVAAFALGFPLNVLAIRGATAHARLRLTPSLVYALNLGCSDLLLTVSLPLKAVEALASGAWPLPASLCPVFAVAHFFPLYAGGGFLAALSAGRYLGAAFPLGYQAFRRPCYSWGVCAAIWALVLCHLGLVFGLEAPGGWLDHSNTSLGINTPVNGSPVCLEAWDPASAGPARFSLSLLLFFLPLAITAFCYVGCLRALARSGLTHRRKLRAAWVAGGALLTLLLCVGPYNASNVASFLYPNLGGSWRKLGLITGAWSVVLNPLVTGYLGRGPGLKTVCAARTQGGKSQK

Compound `COc1ccc(F)c(-c2ccc(COc3cccc([C@@H](CC(=O)O)C4CC4)c3)cc2OC(C)(C)COCc2cn(CCCCCCCCCCCCCCCCCC(=O)NCC[N+](C)(CCC(=O)NCCN)CCC(=O)NCCN)nn2)c1` [Example 28] gave an EC50 under setting [1] of 4.77 nM.

`COc1ccc(F)c(-c2ccc(COc3cccc([C@@H](CC(=O)O)C4CC4)c3)cc2OC(C)(C)Cn2cc(CCCCCCCCCCCCC(=O)NCCN(CCC(=O)NCCN)CCC(=O)NCCN)nn2)c1` [Example 29] registered an EC50 under setting [1] of more than 1000 nM.

Under setting [1], `COc1ccc(F)c(-c2ccc(COc3cccc([C@@H](CC(=O)O)C4CC4)c3)cc2OC(C)(C)Cn2cc(CCCCCCCCCCCCC(=O)NCC[N+](C)(CCC(=O)NCCN)CCC(=O)NCCN)nn2)c1` [Example 30] showed an EC50 of 298 nM.

Under setting [1], `COc1ccc(F)c(-c2ccc(COc3cccc([C@@H](CC(=O)O)C4CC4)c3)cc2OC(C)(C)Cn2cc(CCCCCCCCCCCCCCCCCC(=O)NCCN(CCC(=O)NCCN)CCC(=O)NCCN)nn2)c1` [Example 31] showed an EC50 of 2.28 nM.

As for `COc1ccc(F)c(-c2ccc(COc3cccc([C@@H](CC(=O)O)C4CC4)c3)cc2OC(C)(C)Cn2cc(CCCCCCCCCCCCCCCCCC(=O)NCC[N+](C)(CCC(=O)NCCN)CCC(=O)NCCN)nn2)c1` [Example 32], it took 1.98 nM to reach a half-maximal effect under setting [1] (EC50).

As for `COc1ccc(F)c(-c2ccc(COc3cccc([C@@H](CC(=O)O)C4CC4)c3)cc2C(OCCCCCn2cc(CCCCCCCCCCCCC(=O)NCCN(CCC(=O)NCCN)CCC(=O)NCCN)nn2)C(C)(C)C)c1` (stereo partly drawn) [Example 33], the response under setting [1] was half-maximal at 36.8 nM (EC50).

Under setting [1], `COc1ccc(F)c(-c2ccc(COc3cccc([C@@H](CC(=O)O)C4CC4)c3)cc2C(OCCCCCn2cc(CCCCCCCCCCCCC(=O)NCC[N+](C)(CCC(=O)NCCN)CCC(=O)NCCN)nn2)C(C)(C)C)c1` (stereo partly drawn) [Example 34] displayed an EC50 of 1.91 nM.

Consider `C[C@H](C(=O)O)[C@H](c1ccc2c(c1)O[C@@H](C1CCN(Cc3cc(-c4cn(CCCCCCCCCCCCCCCCCC(=O)NCC[N+](C)(C)C)nn4)ccc3OC(F)(F)F)CC1)CC2)C1CC1` [Example 35], for which, under setting [1], the midpoint of the response, the EC50, lay at 1.18 nM.

Compound `C[C@H](C(=O)O)[C@H](c1ccc2c(c1)O[C@@H](C1CCN(Cc3cc(-c4cn(CCCCCCCCCCCC(=O)NCCN(CCC(=O)NCCN)CCC(=O)NCCN)nn4)ccc3OC(F)(F)F)CC1)CC2)C1CC1` [Example 36] had an EC50 under setting [1] of 403 nM and an EC50 under setting [2] of 403 nM.

With `COc1ccc(F)c(-c2ccc(COc3cccc([C@@H](CC(=O)O)C4CC4)c3)cc2CC(C)(C)Cn2cc(CCCCCCCCCCCCCCCCCC(=O)NCC[N+](C)(C)C)nn2)c1` [Example 38], under setting [1], the EC50 was determined as 5.42 nM.

With `C[C@H](C(=O)O)[C@H](c1ccc2c(c1)O[C@@H](C1CCN(Cc3cc(-c4cn(CCCCCCCCCCCCCCCC(=O)NCCN(CCC(=O)NCCN)CCC(=O)NCCN)nn4)ccc3OC(F)(F)F)CC1)CC2)C1CC1` [Example 39], the EC50 by setting is: under setting [1], 0.83 nM; under setting [2], 0.83 nM.

`COc1ccc(F)c(-c2ccc(COc3cccc([C@@H](CC(=O)O)C4CC4)c3)cc2C(C)(C)c2cn(CCCCCCCCCCCCCCCC(=O)NCCN(CCC(=O)NCCN)CCC(=O)NCCN)nn2)c1` [Example 40] displayed a concentration for a half-maximal effect (EC50) under setting [1] of 25.3 nM.

As to `COc1ccc(C(=O)N(CC(C)(C)CCCCCCn2cc(CCCCCCCCCCCCCCCCCC(=O)NCC[N+](C)(CCC(=O)NCCN)CCC(=O)NCCN)nn2)c2cccc(C)n2)c(N2CCC(COc3cc([C@@H](CC(=O)O)C4CC4)ccn3)CC2)c1` [Example 42], under setting [1], the EC50 was found to be 0.29 nM.

In turn, `COc1ccc(C(=O)N(CC(C)(C)CCCCCCn2cc(CCCCCCCCCCCCC(=O)NCC[N+](C)(CCC(=O)NCCN)CCC(=O)NCCN)nn2)c2cccc(C)n2)c(N2CCC(COc3cc([C@@H](CC(=O)O)C4CC4)ccn3)CC2)c1` [Example 43] registered an EC50 under setting [1] of 0.21 nM and an EC50 under setting [2] of 0.21 nM.

With `COc1ccc(C(=O)N(CC(C)(C)CCCCCCn2cc(CCCCCCCCCCCCCCCCCC(=O)NCC[N+](C)(C)C)nn2)c2cccc(C)n2)c(N2CCC(COc3cc([C@@H](CC(=O)O)C4CC4)ccn3)CC2)c1` [Example 44], it took 1.74 nM to reach a half-maximal effect under setting [1] (EC50).

`C[C@H](C(=O)O)[C@H](c1ccc2c(c1)O[C@@H](C1CN(Cc3cc(-c4cn(CCCCCCCCCCCCCCCCCC(=O)NCC[N+](C)(CCC(=O)NCCN)CCC(=O)NCCN)nn4)ccc3OC(F)(F)F)C1)CC2)C1CC1` [Example 45] gave an EC50 under setting [1] of 0.68 nM.

`C[C@H](C(=O)O)[C@H](c1ccc2c(c1)O[C@@H](C1CCN(Cc3cc(-c4cn(CCCCCCCCCCCCCCCCCC(=O)NCC[N+](C)(C)CCCS(=O)(=O)[O-])nn4)ccc3OC(F)(F)F)CC1)CC2)C1CC1` [Example 46] registered an EC50 under setting [1] of 2.03 nM.

Under setting [1], `COc1ccc(F)c(-c2ccc(COc3cccc([C@@H](CC(=O)O)C4CC4)c3)cc2C(C)(C)c2cn(CCCCCCCCCCCCCCC(=O)NCCN(CCC(=O)NCCN)CCC(=O)NCCN)nn2)c1` [Example 47] registered an EC50 of 117 nM.

Take `COc1ccc(F)c(-c2ccc(COc3cccc([C@@H](CC(=O)O)C4CC4)c3)cc2CC(C)(C)Cn2cc(CCCCCCCCCCCCCCCCCC(=O)NCC[N+](C)(C)CCCS(=O)(=O)[O-])nn2)c1` [Example 48]: the EC50 under setting [1] was 4.7 nM.

For `COc1ccc(F)c(-c2ccc(COc3cccc([C@@H](CC(=O)O)C4CC4)c3)cc2CC(C)(C)Cn2cc(CCCCCCCCCCCCCCC(=O)NCCN(CCC(=O)NCCN)CCC(=O)NCCN)nn2)c1` [Example 49], the EC50 reads like this: under setting [1], 19.9 nM; under setting [2], 19.9 nM.

The compound `C[C@H](C(=O)O)[C@H](c1ccc2c(c1)O[C@@H](C1CCN(Cc3cc(-c4cn(CCCCCCCCCCCCCCCCCCN(C)CCOCCOCCOCCOCCN5C[C@H](O)[C@@H](O)[C@H](O)[C@H]5CO)nn4)ccc3OC(F)(F)F)CC1)CC2)C1CC1` [Example 50] returned an EC50 under setting [1] of 8.46 nM.

Under setting [1], `COc1ccc(F)c(-c2ccc(COc3cccc([C@@H](CC(=O)O)C4CC4)c3)cc2C(C)(C)c2cn(CCCCCCCCCCCCCCC(=O)NCC[N+](C)(CCC(=O)NCCN)CCC(=O)NCCN)nn2)c1` [Example 51] displayed an EC50 of 318 nM.

On to `COc1ccc(F)c(-c2ccc(COc3cccc([C@@H](CC(=O)O)C4CC4)c3)cc2CC(C)(C)Cc2cn(CCCCCCCCCCCCCCC(=O)NCCN(CCC(=O)NCCN)CCC(=O)NCCN)nn2)c1` [Example 52], for which the EC50 is 26 nM under setting [1] and 26 nM under setting [2].

Take `COc1ccc(C(=O)N(CC(C)(C)CCCCCCn2cc(CCCCCCCCC(=O)NCC[N+](C)(CCC(=O)NCCN)CCC(=O)NCCN)nn2)c2cccc(C)n2)c(N2CCC(COc3cc([C@@H](CC(=O)O)C4CC4)ccn3)CC2)c1` [Example 53]: the 50% effective concentration (EC50) by setting is: under setting [1], 3.18 nM; under setting [2], 3.81 nM.

On to `COc1ccc(C(=O)N(CC(C)(C)CCCCCCn2cc(CCCCCCCCCCC(=O)NCC[N+](C)(CCC(=O)NCCN)CCC(=O)NCCN)nn2)c2cccc(C)n2)c(N2CCC(COc3cc([C@@H](CC(=O)O)C4CC4)ccn3)CC2)c1` [Example 54], for which the EC50 runs as follows: under setting [1], 1.71 nM; under setting [2], 1.71 nM.

Take `COc1ccc(F)c(-c2ccc(COc3cccc([C@@H](CC(=O)O)C4CC4)c3)cc2CC(C)(C)Cn2cc(CCCCCCCCCCCCCC(=O)NCCN(CCC(=O)NCCN)CCC(=O)NCCN)nn2)c1` [Example 55]: the EC50 came out at 138 nM under setting [1] and 138 nM under setting [2].

In turn, `COc1ccc(F)c(-c2ccc(COc3cccc([C@@H](CC(=O)O)C4CC4)c3)cc2CC(C)(C)Cn2cc(CCCCCCCCCCC(=O)NCCN(CCC(=O)NCCN)CCC(=O)NCCN)nn2)c1` [Example 56] displayed an EC50 under setting [1] of 1760 nM and an EC50 under setting [2] of 1760 nM.

Take `COc1ccc(F)c(-c2ccc(COc3cccc([C@@H](CC(=O)O)C4CC4)c3)cc2CC(C)(C)Cn2cc(CCCCCCCCCCCCCC(=O)NCC[N+](C)(CCC(=O)NCCN)CCC(=O)NCCN)nn2)c1` [Example 57]: a half-maximal effect under setting [1] (EC50) was put at 63.1 nM and the EC50 under setting [2] stood at 93.1 nM.

Consider `COc1ccc(F)c(-c2ccc(COc3cccc([C@@H](CC(=O)O)C4CC4)c3)cc2CC(C)(C)Cn2cc(CCCCCCCCCCCCCCC(=O)NCC[N+](C)(CCC(=O)NCCN)CCC(=O)NCCN)nn2)c1` [Example 58], for which the EC50 is, setting by setting: under setting [1], 36.5 nM; under setting [2], 8.14 nM.

As for `COc1ccc(F)c(-c2ccc(COc3cccc([C@@H](CC(=O)O)C4CC4)c3)cc2CC(C)(C)Cn2cc(CCCCCCCCCCC(=O)NCC[N+](C)(CCC(=O)NCCN)CCC(=O)NCCN)nn2)c1` [Example 59], the EC50 runs as follows: under setting [1], 1260 nM; under setting [2], 1260 nM.

As to `COc1ccc(C(=O)N(CC(C)(C)CCCCCCn2cc(CCCCCCCCCCCCC(=O)NCCN(CC(=O)NCCN)CC(=O)NCCN)nn2)c2cccc(C)n2)c(N2CCC(COc3cc([C@@H](CC(=O)O)C4CC4)ccn3)CC2)c1` [Example 60], the EC50 under setting [1] is 0.44 nM.

Regarding `COc1ccc(C(=O)N(CC(C)(C)CCCCCCn2cc(CCCCCCCCCCCCC(=O)NCC[N+](C)(CC(=O)NCCN)CC(=O)NCCN)nn2)c2cccc(C)n2)c(N2CCC(COc3cc([C@@H](CC(=O)O)C4CC4)ccn3)CC2)c1` [Example 61], the EC50 under setting [1] came to 0.23 nM.

`COc1ccc(C(=O)N(CC(C)(C)CCCCCCCCCCCCCCCCCCCC(=O)NCCN(CC(=O)NCCN)CC(=O)NCCN)c2cccc(C)n2)c(N2CCC(COc3cc([C@@H](CC(=O)O)C4CC4)ccn3)CC2)c1` [Example 64] returned an EC50 under setting [1] of 0.68 nM.
